Assay results from publication PMC6283615, “Anilinoquinoline based inhibitors of trypanosomatid proliferation” (PLoS Neglected Tropical Diseases, 2018).
Converted amounts (≈) assume the structure as drawn.

What was measured:
[1] = test system: T. cruzi amastigote (Tulahuen strain expressing β-galactosidase); assay: Intracellular T. cruzi assay in 3T3 cells (beta-galactosidase, 96 h); type: cell-based, Trypanosoma cruzi; details: intracellular in 3T3 cells, 96 h; read-out: T. cruzi amastigote EC50
Description: In a 96-well plate, 5×10^4 3T3 cells in DMEM without phenol red supplemented with 2% FBS were added to each well. Cells were incubated for 2 h to allow for attachment. Compounds were added in triplicates at 50 μM and in serial dilutions 1:2. To each well, 5×10^4 T. cruzi trypomastigotes (Tulahuen strain expressing β-galactosidase) were added and incubated at 37°C, 5% CO2 for 96 h. Following incubation, 50 μL of 500 μM chlorophenol Red-β-D-galactopyranoside (CPRG) in phosphate-buffered saline with 0.5% NP40 was added to each well and incubated at 37°C, 5% CO2 for 4 h. Absorbance was read at 590–595 nm.

[2] = Human plasma protein binding; type: in vitro ADME
[3] = test system: T. b. brucei (strain 427); assay: T. b. brucei proliferation assay (PrestoBlue, 48 h); type: cell-based, Trypanosoma brucei brucei
Description: The assay was performed following a previously reported procedure. Briefly, in a 96-well plate, compounds were added in triplicates at 50 μM and in serial dilutions 1:2 in HMI-9 medium. To each well, 100 μL of 2.5×10^3 T. b. brucei (strain 427, received as a gift from Dr. C. C. Wang at UCSF) in HMI-9 medium was were added and incubated at 37°C, 5% CO2 for 48 h. Following incubation, 20 μL of PrestoBlue were added to each well and incubated for additional 4 h. Fluorescence was read at 530 nm excitation and 590 nm emission.

LogD7.4 = type: physicochemical; details: pH 7.4
HepG2 cells = assay: Drug toxicity to HepG2 cells (MTT, 48 h); type: cell-based, human; details: tested concentration ranges based on compound solubility
Description: HepG2 cells were cultured in complete Minimal Essential Medium prepared by supplementing MEM with 0.19% sodium bicarbonate, 10% heat inactivated FBS, 2 mM L-glutamine, 0.1 mM MEM non-essential amino, 0.009 mg/mL insulin, 1.76 mg/mL bovine serum albumin, 20 units/mL penicillin–streptomycin, and 0.05 mg/mL gentamycin. HepG2 cells cultured in complete MEM were first washed with 1× Hank’s Balanced Salt Solution (Invitrogen #14175095), trypsinized using a 0.25% trypsin/EDTA solution, assessed for viability using trypan blue, and resuspended at 250,000 cells/mL. Using a Tecan EVO Freedom robot, 38.3 μL of cell suspension were added to each well of clear, cell culture-treated 384-well microtiter plates for a final concentration of 9570 liver cells per well, and plated cells were incubated overnight in 5% CO2 at 37°C. Drug plates were prepared with the Tecan EVO Freedom using sterile 96 well plates containing twelve duplicate 1.6-fold serial dilutions of each test compound suspended in DMSO. 4.25 μL of diluted test compound was then added to the 38.3 μL of media in each well providing a […] final dilution of compound. Compounds were tested from a range of 57 ng/mL to 10,000 ng/mL for all assays. Mefloquine was used as a plate control for all assays with a concentration ranging from 113 ng/mL to 20,000 ng/mL. After a 48 h incubation period, 8 μL of a 1.5 mg/mL solution of MTT diluted in complete MEM media was added to each well. All plates were subsequently incubated in the dark for 1 h at room temperature. After incubation, the media and drugs in each well was removed by shaking the plate over sink, and the plates were left to dry in a fume hood for 15 mins. Next, 30 μL of isopropanol acidified by addition of HCl at a final concentration of 0.36% was added to dissolve the formazan dye crystals created by reduction of MTT. Plates are put on a 3-D rotator for 15–30 mins. Absorbance was determined in all wells using a Tecan iControl 1.6 Infinite plate reader.

NIH/3T3 cells = assay: Drug toxicity to 3T3 cells (Alamar Blue, 96 h); type: cell-based
Description: In a 96-well plate, 5×10^4 NIH/3T3 (ATCC CRL-1658) cells (purchased from ATCC) in DMEM without phenol red supplemented with 2% FBS were added to each well. Cells were incubated for 2 h to allow for attachment. Compounds were added in triplicates at 200 μM and in serial dilutions 1:2 and incubated at 37°C, 5% CO2 for 96 h. […] Following incubation, 10 μL of Alamar Blue (ThermoFisher) were added to each well and cells incubated at 37°C, 5% CO2 for 4 h. Absorbance was read at 590–595 nm.

Aqueous solubility = type: physicochemical
L. major amastigote = assay: L. major intracellular amastigote luciferase assay in RAW 264.7 macrophages; type: cell-based, Leishmania major; details: intracellular amastigotes in RAW 264.7 macrophages, 96 h
Description: Amastigote assays were performed using pLEXSY-hyg2-luciferase L. major transfected promastigotes and the murine RAW 264.7 macrophage cell line (ATCC TIB-71, Manassas, VA). Briefly, luciferase-expressing promastigotes of each Leishmania species were generated by adding a luciferase encoding region to the pLEXSY-hyg2 vector (Jena Biosciences, Germany) as described. One μg of the linearized pLEXSY-hyg2-luciferase vector were electroporated (480 V, 13 Ω, and 500 μF) into 4×10^7 Leishmania promastigotes. Selection for stable promastigote transfectants was carried out using hygromycin B (100 μg/mL). RAW 264.7 macrophages were maintained in growth medium (Dulbecco’s Modified Eagle’s Medium supplemented with heat-inactivated 10% FBS (Life Technologies)). Cells were harvested and resuspended in growth medium at 2.0×10^5 cells/mL, and 1×10^4 cells/well were dispensed (final volume 50 μL) in each well of a 384 well tissue-culture treated white plate using a EVO Freedom liquid handling system (Tecan, Durham, NC). Plates were incubated at 37°C in 5% CO2 for 24 h after which the culture medium was removed from each well using the EVO Freedom liquid handler. Metacyclic phase pLEXSY-hyg2-luciferase-Leishmania promastigotes (MOI = 1:10 L. major) were added to each assay plate well and allowed to infect the RAW 264.7 macrophages. After an overnight incubation, the growth medium was aspirated and each well was washed three times with 40 μL of fresh growth medium to remove non-internalized promastigotes. After the third wash, 69.2 μL of growth medium was added to each well. Compound dilutions (final concentration ranges 0.5–10,000 ng/mL) were generated and dispensed using the liquid handling system. Compound treated plates were incubated at 37°C in 5% CO2 for 96 h. After incubation, 7.5 μL of a luciferin solution (Caliper Life Science, Waltham, MA) diluted to 150 μg/mL was added to each well, and the plates were incubated for 30 min at 37°C in the dark. Data were captured using an Infinite M200 plate reader (Tecan). EC50s were generated for each concentration response test using GraphPad Prism software 6.0.

[4] = Rat hepatocyte intrinsic clearance; type: in vitro ADME
[5] = Human liver microsome intrinsic clearance; type: in vitro ADME

Compound	EC50 [1] [µM]	Human PPB [2] [%]	EC50 [3] [µM]	LogD7.4 (LogD7.4)	HepG2 TC50 (HepG2 cells) [µM]	3T3 TC50 (NIH/3T3 cells) [µM]	solubility (Aqueous solubility) [µM]	EC50 (L. major amastigote) [µM]	Rat Hepatocyte CLint [4] [μL/min/10^6 cells]	Human Liver Microsome CLint [5] [µL/min/mg]
CN1CCN(S(=O)(=O)c2ccc(-c3ccc4c(Nc5ccc6[nH]nnc6c5)ccnc4c3)cc2)CC1 [NEU-1018]	> 50	98	> 50	3.4	28	> 100	< 1	17	–	–
CN1CCN(S(=O)(=O)c2ccc(-c3ccc4c(Nc5cccnc5)ccnc4c3)cc2)CC1 [NEU-1019]	> 50	85	5.4	2	36	> 100	175 (≈ 80.4 µg/mL)	22	–	–
CN1CCN(S(=O)(=O)c2ccc(-c3ccc4c(Nc5ccnnc5)ccnc4c3)cc2)CC1 [NEU-1020]	> 50	57	> 50	-0.5	36	> 100	> 1000	22	–	–
Cc1cc(Nc2ccnc3cc(-c4ccc(S(=O)(=O)N5CCN(C)CC5)cc4)ccc23)sn1 [NEU-1023]	25	99	0.6	4.2	35	> 100	< 1	8.4	–	–
CN1CCN(S(=O)(=O)c2ccc(-c3ccc4c(Nc5cnc(C#N)cn5)ccnc4c3)cc2)CC1 [NEU-1024]	> 50	97	3	3.7	31	> 100	< 1	19	–	–
CN1CCN(S(=O)(=O)c2ccc(-c3ccc4c(Nc5ncc(Cl)cn5)ccnc4c3)cc2)CC1 [NEU-1025]	8.8	99	1.5	4.1	31	11	4.8 (≈ 2.38 µg/mL)	8.7	–	–
Cc1nnc(Nc2ccnc3cc(-c4ccc(S(=O)(=O)N5CCN(C)CC5)cc4)ccc23)nc1C [NEU-1028]	> 50	93	> 50	3.4	6.4	> 100	1.5 (≈ 0.734 µg/mL)	4	–	–
COc1ccc(Nc2ccnc3cc(Nc4ccnc(N5CCN(C)CC5)n4)ccc23)cc1Cl [NEU-2093]	8.1	–	0.34	–	4.7	15	–	4.6	2.3	45
Cn1cc(-c2ccc3c(Nc4cnccn4)ccnc3c2)cn1 [NEU-2129]	2.4	–	3.3	2.9	40	37	4 (≈ 1.21 µg/mL)	33	290	25
COc1ccc(Nc2ccnc3cc(-c4cnn(C)c4)ccc23)cc1Cl [NEU-2130]	1.9	–	2.6	–	44	> 100	–	29	–	–
c1coc(-c2ccc3c(Nc4cnccn4)ccnc3c2)c1 [NEU-2131]	4.7	98	4.8	3.8	53	> 100	6 (≈ 1.73 µg/mL)	35	–	160
Cc1cc(Nc2ccc3c(Nc4cnccn4)ccnc3c2)on1 [NEU-2150]	21	–	29	–	48	> 100	–	31	–	–
Cc1nnc(Nc2ccc3c(Nc4cnccn4)ccnc3c2)nc1C [NEU-2151]	> 50	–	2.3	–	22	> 100	–	26	–	–
